Laboratory results from patent US7723328B2, “Methods of facilitating cell survival using neurotrophin mimetics” (The University of North Carolina at Chapel Hill, priority 2005, dated 2010).
Entries after “also recorded” stand apart in the source; their conditions may differ.

Key:
[1] = Age-related hair loss in middle-aged male mice; assay type: in vivo
hippocampal neurons = assay: Hippocampal neuron survival with signaling pathway inhibitors; assay type: cell-based, mouse; settings: BDNF/NGF 25 ng/ml, compounds 5 nM, 48 h
Experimental: (§1) Hippocampal neurons were prepared from E16-17 mouse embryos as previously described (Yang. T. et al. (2003) J Neurosci 23, 3353-3363). […] For studies employing p75^NTR+/+ and p75^NTR−/− neurons, mice carrying a mutation in exon 3 of the p75^NTR gene (Lee, K. F. et al. (1992) Cell 69, 737-749) were bred onto a B6 congenic background (>10 B6 backcrosses).
(§2) After 48 hours in culture, cell survival was assessed as previously described (Longo, F. M., Manthorpe. M., Xie. Y. M., Varon, S. (1997) J Neurosci Res 48, 1-17) using a combination of standard morphological criteria along with visual determination of whether a given cell converted MTT to its blue formazan product. The number of surviving neurons was determined by counting the total number of cells in each well that were both morphologically intact and filed with blue product (Longo F. M., Manthorpe. M., Xie, Y. M., Varon, S. (1997) J Neurosci Res 48, 1-17). For each neurotrophin or compound concentration, duplicate wells were counted and the resulting values averaged. Activity of each compound was confirmed by blinded counts. Counts were normalized to survival achieved with 25 ng/ml BDNF or to baseline survival. Fitting of dose-responsive curves was performed with Sigmaplot obtained from SYSTAT Software Inc. (Richmond, Calif., United States of America).
(§3) For all studies applying signaling inhibitors, p75^NTR antibodies or p75^NTR−/− neurons, survival was assessed at 48 hours.

p75^NTR = biological target: T1, p75^NTR (Homo sapiens, UniProt P08138); assay: proNGF binding to p75NTR by ELISA; settings: 100 ng/ml proNGF
T1 construct: purchased R&D Systems
T1 sequence (P08138 with tags, fused parts or gaps limits assumed): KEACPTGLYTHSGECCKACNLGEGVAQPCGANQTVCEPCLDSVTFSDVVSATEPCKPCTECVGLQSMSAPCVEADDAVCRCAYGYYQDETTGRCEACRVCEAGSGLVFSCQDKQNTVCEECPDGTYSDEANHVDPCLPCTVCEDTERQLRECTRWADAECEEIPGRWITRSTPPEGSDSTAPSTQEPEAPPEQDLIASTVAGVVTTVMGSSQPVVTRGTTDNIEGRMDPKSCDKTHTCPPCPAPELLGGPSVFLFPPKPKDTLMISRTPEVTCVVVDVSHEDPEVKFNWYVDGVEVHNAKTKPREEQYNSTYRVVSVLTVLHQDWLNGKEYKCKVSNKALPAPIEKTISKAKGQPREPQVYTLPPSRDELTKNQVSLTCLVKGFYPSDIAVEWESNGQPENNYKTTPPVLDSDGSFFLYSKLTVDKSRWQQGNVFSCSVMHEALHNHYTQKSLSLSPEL
Experimental: (§4) Briefly, 96-well plates were incubated with 0.1 pmol (at 1 nM) of p75/Fc or TrkA/Fc recombinant protein obtained from R&D System (Minneapolis, Minn., United States of America) overnight at 4° C. followed by incubation with blocking buffer for 1 hour at room temperature. […] Plates were then washed five times with Tris-buffered saline (TBS) containing 0.05% Tween-20 and incubated with anti-NGF rabbit polyclonal antibody overnight at 4° C. Following five washes with TBS, wells were incubated for 2.5 hours at room temperature with anti-rabbit IgG HRP conjugate and washed five times. 3,3′,5,5′-tetramethyl-benzidine substrate was added and the optical density measured at 450 nm.

NFκB-p65 = NFκB-p65 phosphorylation western blot in hippocampal cultures; assay type: cell-based, mouse; settings: 20 nM
Experimental: (§5) For assays of Trk, AKT, NFκB, and ERK activation, hippocampal neurons derived from E16-17 mice were cultured in poly-L-lysine coated six-well plates (Corning, Inc., Corning, N.Y., United States of America) in DMEM containing 10% FBS, followed by incubation in serum-free DMEM for 2 hours before addition of neurotrophins or compounds. At the indicated time points, neurons were harvested in lysis buffer consisting of: 20 mM Tris, pH 8.0, 137 mM NaCl, 1% Igepal CA-630, 10% glycerol, 1 mM PMSF, 10 μg/ml aprotinin, 1 μg/ml leupeptin, 500 μM orthovanadate (Zhou, J., Valletta, J. S., Grimes, M. L., Mobley, W. C. (1995) J Neurochem 65, 1146-1156).
(§6) Lysates were centrifuged, the supernatant collected, and protein concentrations determined using the BCA Protein Assay Reagent obtained from Pierce (Rockford, Ill., United States of America). Western blots were performed as described previously (Yang, T. et al. (2003) J Neurosci 23, 3353-3363). Western blot signals were detected using the ECL Chemiluminescence System obtained by Amersham (Piscataway, N.J., United States of America) (Yang, T. et al. (2003) J Neurosci 23, 3353-3363).

E17 hippocampal neurons = assay: Aβ-induced death of hippocampal neurons; assay type: cell-based; settings: Aβ1-42 10 μM; NGF at 100 pg/ml
Experimental: Using previously well established protocols, Aβ was preincubated for 3 days in water to allow formation of oligomers. E17 hippocampal neurons were incubated for 5 days to allow for maturation prior to addition of Aβ with test compounds.

TrkA = biological target: T2, TrkA (Homo sapiens, UniProt P04629); assay: Trk Y490 phosphorylation western blot in TrkA-expressing 3T3 cells; assay type: cell-based
T2 construct: expressed in transfected cells; host or cells: 3T3 cells (3T3-TrkA)
T2 sequence (P04629 33-796, species assumed): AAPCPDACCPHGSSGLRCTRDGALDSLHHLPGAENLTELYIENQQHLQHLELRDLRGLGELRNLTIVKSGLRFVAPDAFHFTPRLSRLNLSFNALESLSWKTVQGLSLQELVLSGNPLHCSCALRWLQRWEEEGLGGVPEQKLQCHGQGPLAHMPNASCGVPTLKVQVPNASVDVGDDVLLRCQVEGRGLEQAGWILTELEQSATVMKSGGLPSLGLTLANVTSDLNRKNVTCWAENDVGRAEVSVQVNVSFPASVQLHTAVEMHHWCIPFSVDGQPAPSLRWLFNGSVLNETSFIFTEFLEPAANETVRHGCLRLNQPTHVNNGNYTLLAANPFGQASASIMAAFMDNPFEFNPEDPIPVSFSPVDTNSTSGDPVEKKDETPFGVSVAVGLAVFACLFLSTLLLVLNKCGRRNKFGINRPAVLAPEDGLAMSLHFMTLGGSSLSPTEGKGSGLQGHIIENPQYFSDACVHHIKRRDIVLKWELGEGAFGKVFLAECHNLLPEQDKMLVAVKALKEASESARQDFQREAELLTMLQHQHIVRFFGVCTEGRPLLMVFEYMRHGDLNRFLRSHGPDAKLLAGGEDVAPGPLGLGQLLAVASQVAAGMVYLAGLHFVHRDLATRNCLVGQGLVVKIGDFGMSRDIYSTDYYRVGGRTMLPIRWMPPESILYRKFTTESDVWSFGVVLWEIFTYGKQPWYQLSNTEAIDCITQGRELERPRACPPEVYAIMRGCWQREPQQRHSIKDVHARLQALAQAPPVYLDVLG
Experimental: as §6

mature oligodendrocytes = assay: Oligodendrocyte cell death assay (MBP/TUNEL) with or without proNGF; assay type: cell-based, rat; settings: 24 h
Experimental: Cortical oligondendrocytes from rat pups were prepared as previously described (Yoon et al. (1998) J Neurosci 18, 3273-3281, Harrington, A. W., Kim, J. Y., Yoon, S. O. (2002) J Neurosci 22, 156-166). Cells were treated with recombinant, cleavage-resistant proNGF at 0.05 nM (2.8 ng/ml). Controls were treated with equivalent volumes of proNGF purification buffer containing 350 mM imidazole. 24 hours after treatment, the cells were fixed and processed for MBP and TUNEL staining as previously described (Beattie, M. S. et al. (2002) Neuron 36, 375-386). 200-250 cells were counted per well, for a minimum of 600 cells per experimental condition.

p75^NTR-Fc = biological target: T3, p75^NTR-Fc (Homo sapiens, UniProt P08138); assay: NGF/p75NTR-Fc binding by NGF ELISA, Gaddum/Schild fit
T3 construct: purchased R&D Systems
T3 sequence (P08138 with tags, fused parts or gaps limits assumed): as the sequence (P08138 with tags, fused parts or gaps limits assumed) above
Experimental: as §4
A regression analysis of NGF-p75^NTR binding in the presence of the p75-binding compounds was performed. The data was fit using the Nonlinear Regression module of Sigmaplot, to a modification of the Gaddum/Schild equation (adapted from Motulsky, H. J., and Christopoulos. A. (2003) A Practical Guide to Curve Fitting, 2nd edn. (San Diego, Calif., GraphPad Software, Inc.): […]

p75^NTR−/− cells = assay: Survival of p75NTR+/+ versus p75NTR-/- hippocampal neurons; assay type: cell-based, mouse; settings: neurotrophins 1.8 nM, compounds 5 nM
Experimental: as §1, §2, §3

[2] = Preliminary studies of oral uptake and blood-brain barrier penetration; assay type: in vivo
AKT = AKT activation western blot in hippocampal cultures; assay type: cell-based, mouse; settings: 20 nM, relative to NGF
Experimental: as §5, §6

TrkA-Fc = assay: NGF/TrkA-Fc binding by NGF ELISA; settings: up to 10,000 nM compound
Experimental: as §4

proNGF ELISA signal versus proNGF alone (p75^NTR; P<0.01): significantly less than proNGF alone
decrement of proNGF binding to p75NTR (p75^NTR; at the highest concentration (range 1500 nM to 10,000 nM)): approximately 30%
TrkA activation (Trk Y490 phosphorylation) (TrkA): no detectable activation
A2 relative to EC50 of biologic effect (p75^NTR-Fc): nearly four orders of magnitude greater
compound concentration at which binding curve differs from 0 nM curve (P<0.0001) (p75^NTR-Fc; ANOVA with post-hoc Bonferroni/Dunn): ≥ 500 nM
Schild coefficient (p75^NTR-Fc; Gaddum-Schild fit): 0.58 +/−0.04
shift of the NGF/p75NTR-Fc binding curve (p75^NTR-Fc; increasing compound concentrations): significantly to the right
blood-brain barrier penetration [2]: blood-brain barrier penetration
oral uptake [2]: significant oral uptake
SMILES: CCC(C)C(N)C(=O)NCCN1CCOCC1 (stereo not drawn) [Compound 4]
mice with hair loss, studies taken together ([1]; both studies pooled, p 0.001 Fisher's Exact test vs vehicle): 0 of 14
mice with hair loss ([1]; follow up study, middle-aged male mice, 2-month time point): 0 of 9
mice with age-related hair loss ([1]; three-month toxicology trial, male mice): 0 of 5
effect of PD98059 (ERK inhibitor) on survival promoted by the substance (hippocampal neurons; PD98059 50 μM): no significant decrease
effect of SN50 (NFκB translocation inhibitor) on survival promoted by the substance (hippocampal neurons; SN50 2.5 μg/ml): significantly reduced
increase in NFκB-p65 phosphorylation (NFκB-p65): approximately 1.5 fold
protection against Aβ1-42-induced death (E17 hippocampal neurons): entirely block
inhibition of proNGF-induced oligodendrocyte death (mature oligodendrocytes; 2.8 ng/ml (0.05 nM) proNGF): significantly inhibited; also recorded: blocked cell death
promotion of oligodendrocyte cell death by compound alone (mature oligodendrocytes; absence of proNGF): did not promote cell death
effect of p75NTR-deficiency on promotion of neuron survival by the substance (p75^NTR−/− cells): completely inhibits
onset of AKT activation (AKT): slower than that of NGF
effect on NGF binding to TrkA-Fc (TrkA-Fc): did not affect; also recorded: no compound effects up to 10,000 nM
